Results on twelve compounds are retold here after ChEMBL document CHEMBL1201862, “PubChem BioAssay data set” (2004).

Test systems include SF-268; RXF 393; Malme-3M; HCT-116; SK-MEL-28; IGROV-1; SF-539; SK-OV-3; TK-10; K562; OVCAR-4; HOP-62; NCI-H460; SK-MEL-5; SW-620; SK-MEL-2; HOP-92; LOX IMVI; NCI-H226.
Assay in all cases: growth of human tumour cells (NCI), 48 h

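Method: 48-hour compound exposure of cells in 96-well plates, five concentrations, linear interpolation of endpoints. Abbreviation: GI50, concentration required for 50% inhibition of growth.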 Calls of active or inactive are those of the source. No stated cut-off is given here; in the data, active = GI50 up to about 1.1 µM and inactive = higher.

Regarding `N#Cc1cc(NC(=O)c2ccccc2)c(=O)n2c1[nH]c1ccccc12`, the GI50 in the test on SF-268 is 43.1 µM (inactive); in the test with RXF 393, 13.6 µM (inactive); in the test on Malme-3M it was 23.9 µM (inactive); in the test on HCT-116, 21.4 µM (inactive); with SK-MEL-28, 21.6 µM (inactive); with IGROV-1, 24.5 µM (inactive). For the same compound, the GI50 in the test on SF-539 is 21.5 µM (inactive); with SK-OV-3, 28.8 µM (inactive); in the test with TK-10 it was 22.2 µM (inactive); in the test with K562, 31.7 µM (inactive); in the test on OVCAR-4, 27 µM (inactive); in the test with HOP-62 it was 24.5 µM (inactive). Also, the GI50 in the test on NCI-H460 is 33 µM (inactive); in the test with SK-MEL-5 it was 12.7 µM (inactive); with SW-620, 39 µM (inactive); in the test on SK-MEL-2, 32.1 µM (inactive).
With `O=C(O)c1cc(=O)c2[nH]c3ccccc3c2s1`, the GI50 with SF-268, in the test on RXF 393, in the test on Malme-3M, in the test with SK-MEL-28, in the test with IGROV-1 and in the test with SK-OV-3 was > 100 µM (inactive) each time. Further, the GI50 in the test with TK-10, in the test on K562, in the test with OVCAR-4, with HOP-62, in the test with NCI-H460 and with SK-MEL-5 was > 100 µM (inactive) each time. Moreover, the GI50 in the test on SW-620, in the test with SK-MEL-2 and in the test with HOP-92 was > 100 µM (inactive) in each case.
As to `CC1(C)CC(=O)C=C(NC(=O)c2ccccc2)C1`, the GI50 with SF-268, with RXF 393, in the test on Malme-3M, in the test on HCT-116, with SK-MEL-28 and with IGROV-1 was > 100 µM (inactive) each time. Further, the GI50 in the test with SF-539, in the test with SK-OV-3, with TK-10, in the test on LOX IMVI, in the test with K562 and in the test with OVCAR-4 was > 100 µM (inactive) each time. The GI50 in the test with HOP-62, in the test with NCI-H460, in the test on SK-MEL-5, in the test with SW-620, with SK-MEL-2 and with HOP-92 was > 100 µM (inactive) in each case.
Regarding `NC(=O)C(=CN1CC(=O)NC1=S)C(N)=O`, the GI50 in the test with SF-268, with RXF 393, in the test with HCT-116, in the test with SK-MEL-28, with NCI-H226 and in the test on IGROV-1 was > 100 µM (inactive) in each case. For the same compound, the GI50 with SF-539, in the test with SK-OV-3, in the test with TK-10, with LOX IMVI, in the test with OVCAR-4 and in the test with HOP-62 was > 100 µM (inactive) each time. For the same compound, the GI50 in the test on NCI-H460, with SK-MEL-5, in the test with SW-620, with SK-MEL-2 and in the test with HOP-92 was > 100 µM (inactive) in each case.
For `CC(C)/C(Cl)=N\OC(=O)NNc1ccccc1`, the GI50 with SF-268 was > 91.4 µM (inactive); with RXF 393, > 100 µM (inactive); with Malme-3M, 15.8 µM (inactive); with HCT-116, 1.03 µM (active); with NCI-H226 it was 27 µM (inactive); in the test on IGROV-1, 1.8 µM (inactive). The GI50 is 29.3 µM (inactive) in the test on SF-539; > 100 µM (inactive) with SK-OV-3; 68.7 µM (inactive) with TK-10; 12.6 µM (inactive) in the test with LOX IMVI; < 0.01 µM (active) with K562; 7.48 µM (inactive) in the test with OVCAR-4. Besides, the GI50 in the test on HOP-62 is > 43.1 µM (inactive); in the test on NCI-H460 it was < 0.01 µM (active); in the test with SK-MEL-5 it was 0.0966 µM (active); with SW-620, 6.92 µM (inactive); with SK-MEL-2, > 32.1 µM (inactive); with HOP-92, 16.3 µM (inactive).
For the compound `O=C1OC(=O)C2C1C1(c3ccccc3)OC2(c2ccccc2)c2c(Br)c(Br)c(Br)c(Br)c21` (centres undefined), the GI50 was > 100 µM (inactive) with SF-268; 42.3 µM (inactive) with RXF 393; > 100 µM (inactive) in the test with Malme-3M; > 100 µM (inactive) with HCT-116; > 100 µM (inactive) in the test on NCI-H226; > 100 µM (inactive) in the test on IGROV-1. Further, the GI50 is > 100 µM (inactive) with SF-539; 28.7 µM (inactive) in the test on SK-OV-3; > 100 µM (inactive) in the test with TK-10; > 100 µM (inactive) with LOX IMVI; > 100 µM (inactive) with K562; > 100 µM (inactive) with OVCAR-4. The GI50 in the test on HOP-62, in the test with NCI-H460, with SK-MEL-5, in the test on SW-620, with SK-MEL-2 and with HOP-92 was > 100 µM (inactive) in each case.
With `CCOC(=O)CCCn1cc(C(=O)OC)nn1`, the GI50 in the test with SF-268, in the test with RXF 393, with Malme-3M, in the test on HCT-116, in the test on SK-MEL-28 and in the test on NCI-H226 was > 100 µM (inactive) throughout. The GI50 with IGROV-1, with SF-539, in the test with TK-10, with LOX IMVI, with OVCAR-4 and with HOP-62 was > 100 µM (inactive) throughout. The GI50 in the test on NCI-H460, with SK-MEL-5, in the test on SW-620, in the test with SK-MEL-2 and in the test on HOP-92 was > 100 µM (inactive) in each case.
As for `Nc1cc(=O)n(-c2ccccc2)c(=S)n1-c1ccccc1`, the GI50 in the test on SF-268, with RXF 393, with Malme-3M, in the test with HCT-116, in the test with NCI-H226 and in the test with IGROV-1 was > 100 µM (inactive) in each case. For the same compound, the GI50 with SF-539, in the test with SK-OV-3, with TK-10, in the test on LOX IMVI, in the test on K562 and in the test with HOP-62 was > 100 µM (inactive) throughout. Moreover, the GI50 with NCI-H460, with SK-MEL-5, in the test with SW-620 and in the test on SK-MEL-2 was > 100 µM (inactive) each time.
For `COc1ccc2nccc(C3=CCC4CCN(C(=O)c5ccccc5)C3C4)c2c1` (centres undefined), the GI50 with SF-268, in the test on RXF 393, with Malme-3M, in the test on HCT-116, in the test on SK-MEL-28 and in the test on IGROV-1 was > 100 µM (inactive) throughout. Moreover, the GI50 is > 100 µM (inactive) in the test with SF-539; > 100 µM (inactive) in the test with SK-OV-3; > 100 µM (inactive) in the test with TK-10; > 100 µM (inactive) in the test with LOX IMVI; 74.5 µM (inactive) in the test on K562; 81.8 µM (inactive) in the test on OVCAR-4. For the same compound, the GI50 was > 100 µM (inactive) in the test on HOP-62; > 100 µM (inactive) in the test on NCI-H460; 93.3 µM (inactive) in the test on SK-MEL-5; > 100 µM (inactive) with SW-620; > 100 µM (inactive) in the test on SK-MEL-2; > 100 µM (inactive) with HOP-92.
Consider `CC(=O)O/N=C(/C)c1ccccc1O`, for which the GI50 with SF-268, in the test on RXF 393, in the test on Malme-3M, with HCT-116, in the test with SK-MEL-28 and with NCI-H226 was > 100 µM (inactive) each time. Moreover, the GI50 in the test on IGROV-1, in the test on SF-539, in the test on SK-OV-3, in the test with TK-10, in the test with LOX IMVI and in the test on K562 was > 100 µM (inactive) in each case. The GI50 with OVCAR-4, in the test with HOP-62, with NCI-H460, with SW-620 and in the test with SK-MEL-2 was > 100 µM (inactive) throughout.
With `COc1ccc2[nH]c3c(c2c1)CCN(C)CC3`, the GI50 with SF-268, in the test on Malme-3M, in the test with HCT-116, in the test on SK-MEL-28, in the test with IGROV-1 and in the test on SF-539 was > 100 µM (inactive) each time. Also, the GI50 with SK-OV-3 was > 100 µM (inactive); in the test on TK-10, > 100 µM (inactive); in the test with LOX IMVI, > 100 µM (inactive); with K562 it was > 100 µM (inactive); in the test with OVCAR-4, 45.3 µM (inactive); in the test on HOP-62 it was > 100 µM (inactive). Besides, the GI50 with NCI-H460, with SK-MEL-5, with SW-620, with SK-MEL-2 and in the test on HOP-92 was > 100 µM (inactive) in each case.
`Cc1ccc(-n2c3nc(=O)n(C)c(=O)c-3nc3ccccc32)cc1`: the GI50 in the test with SF-268 was 35.7 µM (inactive); in the test on RXF 393 it was 64.9 µM (inactive); in the test on Malme-3M it was 13.8 µM (inactive); in the test with HCT-116, 19.1 µM (inactive); with NCI-H226 it was 17.3 µM (inactive); in the test with IGROV-1 it was 31.6 µM (inactive). In addition, the GI50 in the test on SF-539 was 27.8 µM (inactive); in the test on SK-OV-3, 95.7 µM (inactive); in the test with TK-10, 27.2 µM (inactive); in the test on LOX IMVI it was 20.4 µM (inactive); with K562, 17 µM (inactive); with OVCAR-4 it was 14.5 µM (inactive). Besides, the GI50 is 43.9 µM (inactive) in the test on HOP-62; 3.33 µM (inactive) in the test on NCI-H460; 13.4 µM (inactive) in the test on SK-MEL-5; 5.75 µM (inactive) in the test on SW-620; 14.6 µM (inactive) in the test on SK-MEL-2.
